Legend:
[1] = test system: Plutella xylostella (Diamond-Back Moth); assay: Example B3: Plutella xylostella larvicide, feeding/contact activity, preventative (artificial diet, 96-well); type: in vivo; conditions: 216 h, application rate of 500 ppm, mortality assessed 9 days after treatment
Protocol: Example B3: Plutella xylostella (Diamond-Back Moth) larvicide, feeding/contact activity, preventative Artificial diet was dispensed into a 96-well microtiter plate and treated with aqueous test solutions prepared from 10′000 ppm DMSO stock solutions. Eggs were suspended above the treated diet and first instar larvae hatched onto the diet. Mortality was assessed 9 days after treatment.

[2] = test system: Diabrotica balteata (Corn Root Worm); assay: Example B6: Activity against Diabrotica balteata (sprayed maize sprouts); type: in vivo; conditions: 96 h, application rate of 200 ppm, L2 larvae, 4 days after infestation, read-out: effect in at least one of the two categories (mortality or growth inhibition)
Protocol: Example B6: Activity Against Diabrotica Balteata (Corn Root Worm)
Maize sprouts placed onto an agar layer in 24-well microtiter plates were treated with aqueous test solutions prepared from 10′000 ppm DMSO stock solutions by spraying. After drying, the plates were infested with L2 larvae (6 to 10 per well). The samples were assessed for mortality and growth inhibition in comparison to untreated samples 4 days after infestation.

[3] = test system: Plutella xylostella (Diamond Back Moth); assay: Example B11: Activity against Plutella xylostella (artificial diet, 24-well, L2 larvae); type: in vivo; conditions: 120 h, application rate of 200 ppm, 5 days after infestation, read-out: effect in at least one of the two categories (mortality or growth inhibition)
Protocol: Example B11: Activity Against Plutella xylostella (Diamond Back Moth)
24-well microtiter plates with artificial diet were treated with aqueous test solutions prepared from 10′000 ppm DMSO stock solutions by pipetting. After drying, the plates were infested with L2 larvae (10 to 15 per well). The samples were assessed for mortality and growth inhibition in comparison to untreated samples 5 days after infestation.

[4] = test system: Myzus persicae (Green Peach Aphid); assay: Example B9: Activity against Myzus persicae (roots of pea seedlings in test solutions); type: in vivo; conditions: 144 h, test rate of 24 ppm, mixed ages, 6 days after placing seedlings into test solutions
Protocol: Example B9: Activity Against Myzus persicae (Green Peach Aphid)
Roots of pea seedlings infested with an aphid population of mixed ages were placed directly into aqueous test solutions prepared from 10′000 DMSO stock solutions. The samples were assessed for mortality 6 days after placing seedlings into test solutions.

[5] = test system: Spodoptera littoralis (Egyptian Cotton Leaf Worm); assay: Example B4: Activity against Spodoptera littoralis (sprayed cotton leaf discs); type: in vivo; conditions: foliar, 72 h, application rate of 200 ppm, L1 larvae, 3 days after infestation
Protocol: Example B4: Activity Against Spodoptera littoralis (Egyptian Cotton Leaf Worm)
Cotton leaf discs were placed on agar in 24-well microtiter plates and sprayed with aqueous test solutions prepared from 10′000 ppm DMSO stock solutions. After drying the leaf discs were infested with five L1 larvae. The samples were assessed for mortality, anti-feedant effect, and growth inhibition in comparison to untreated samples 3 days after infestation. Control of Spodoptera littoralis by a test sample is given when at least one of the categories mortality, anti-feedant effect, and growth inhibition is higher than the untreated sample.

[6] = test system: Spodoptera littoralis (Egyptian Cotton Leaf Worm); assay: Example B5: Activity against Spodoptera littoralis (systemic, lettuce grown on treated agar); type: in vivo; conditions: 144 h, test rate of 12.5 ppm, 6 days after infestation, uptake by lettuce roots, read-out: effect in at least one of the three categories (mortality, anti-feeding, or growth inhibition)
Excerpt: Example B5: Activity Against Spodoptera littoralis (Egyptian Cotton Leaf Worm)
Test compounds were applied by pipette from 10′000 ppm DMSO stock solutions into 24-well plates and mixed with agar. Lettuce seeds were placed onto the agar and the multi well plate was closed by another plate which contained also agar. After 7 days the compound was absorbed by the roots and the lettuce grew into the lid plate. The lettuce leaves were then cut off into the lid plate. Spodoptera eggs were pipetted through a plastic stencil onto a humid gel blotting paper and the lid plate was closed with it. The samples were assessed for mortality, anti-feedant effect and growth inhibition in comparison to untreated samples 6 days after infestation.

[7] = test system: Myzus persicae (Green Peach Aphid); assay: Example B8: Activity against Myzus persicae (sprayed sunflower leaf discs); type: in vivo; conditions: foliar, 144 h, application rate of 200 ppm, mixed ages, 6 days after infestation
Protocol: Example B8: Activity Against Myzus persicae (Green Peach Aphid)
Sunflower leaf discs were placed onto agar in a 24-well microtiter plate and sprayed with aqueous test solutions prepared from 10′000 ppm DMSO stock solutions. After drying, the leaf discs were infested with an aphid population of mixed ages. The samples were assessed for mortality 6 days after infestation.

[8] = test system: Euschistus heros (Neotropical Brown Stink Bug); assay: Example B7: Activity against Euschistus heros (sprayed soybean leaves); type: in vivo; conditions: 120 h, application rate of 200 ppm, N2 nymphs, 5 days after infestation, read-out: effect in at least one of the two categories (mortality or growth inhibition)
Protocol: Example B7: Activity Against Euschistus heros (Neotropical Brown Stink Bug)
Soybean leaves on agar in 24-well microtiter plates were sprayed with aqueous test solutions prepared from 10′000 ppm DMSO stock solutions. After drying the leaves were infested with N2 nymphs. The samples were assessed for mortality and growth inhibition in comparison to untreated samples 5 days after infestation.

Row | melting point [°C] | SMILES | pest or weed control at 500 ppm [1] [%] | effect (mortality or growth inhibition) at 200 ppm [2] [%] | further results
1 | 125 to 126 | CCSc1ccc(Cl)nc1-c1cc(-c2cncc(C(F)(F)F)c2)n(C)n1 [Compound P36] | – | – | –
2 | 136 to 138 | CCSc1ccc(Cl)nc1-c1cc(-c2ccc(C(F)(F)F)nc2)n(C)n1 [Compound P32, 6-chloro-3-ethylsulfanyl-2-[1-methyl-5-[6-(trifluoromethyl)-3-pyridyl]pyrazol-3-yl]pyridine] | – | – | –
3 | – | CCS(=O)(=O)c1cccnc1-c1cn(-c2cncc(C(F)(F)F)c2)nn1 [Compound P20] | ≥ 70 | ≥ 80 | percent effect (mortality or growth inhibition) at 200 ppm [3]: ≥ 80%; mortality at 24 ppm [4]: ≥ 80%; percent control (mortality, anti-feedant effect or growth inhibition) at 200 ppm [5]: ≥ 80%; percent effect (mortality, anti-feeding or growth inhibition) at 12.5 ppm [6]: ≥ 80%; mortality at 200 ppm [7]: ≥ 80%
4 | 255 to 257 | CCS(=O)(=O)c1ccc(Cl)nc1-c1cc(-c2cc(C(F)(F)F)ccn2)n(C)n1 [Compound P29] | – | – | –
5 | 160 to 162 | CCS(=O)(=O)c1cccnc1-c1cc(-c2ccc(C(F)(F)F)nc2)n(C)n1 [Compound P34, 3-ethylsulfonyl-2-[1-methyl-5-[6-(trifluoromethyl)-3-pyridyl]pyrazol-3-yl]pyridine] | – | – | –
6 | – | CCS(=O)(=O)c1cc(C(F)(F)F)cnc1-c1nnc(-c2ccc(C(F)(F)F)cc2)o1 [Compound P3] | – | – | percent control (mortality, anti-feedant effect or growth inhibition) at 200 ppm [5]: ≥ 80%
7 | 212 to 213 | CCS(=O)(=O)c1cc(C(F)(F)F)cnc1-c1cn(-c2ccc(C(F)(F)F)cc2)nn1 [Compound P2, 3-(ethylsulfonyl)-5-(trifluoromethyl)-2-(1-(4-(trifluoromethyl)phenyl)-1H-1,2,3-triazol-4-yl)pyridine] | – | – | –
8 | 145 to 146 | CCSc1cc(C(F)(F)F)cnc1-c1cc(-c2ccc(C(F)(F)F)cc2)on1 [Compound P11, 3-(3-ethylsulfanyl-5-(trifluoromethyl)pyridin-2-yl)-5-(4-(trifluoromethyl)phenyl)-isoxazole] | – | – | –
9 | – | CCS(=O)(=O)c1cc(C(F)(F)F)cnc1-c1cn(-c2ccc(C(F)(F)F)nc2)nn1 [Compound P22] | ≥ 70 | ≥ 80 | percent effect (mortality or growth inhibition) at 200 ppm [3]: ≥ 80%; percent control (mortality, anti-feedant effect or growth inhibition) at 200 ppm [5]: ≥ 80%
10 | 152 to 153 | CCS(=O)(=O)c1ccc(Cl)nc1-c1cc(-c2cncc(C(F)(F)F)c2)n(C)n1 [Compound P37] | – | – | –
11 | – | CCSc1cccnc1-c1cn(-c2ccc(C(F)(F)F)cc2)nn1 [Compound P16, 3-ethylsulfanyl-2-[1-[4-(trifluoromethyl)phenyl]triazol-4-yl]pyridine] | ≥ 70 | – | percent effect (mortality or growth inhibition) at 200 ppm [3]: ≥ 80%
12 | 138 to 140 | CCSc1ccc(Cl)nc1-c1cc(-c2cc(C(F)(F)F)ccn2)n(C)n1 [Compound P28] | – | – | –
13 | 235 to 237 | CCS(=O)(=O)c1ccc(-n2cncn2)nc1-c1cc(-c2cncc(C(F)(F)F)c2)n(C)n1 [Compound P39] | – | – | –
14 | 171 to 173 | CCS(=O)(=O)c1cccnc1-c1cc(-c2cc(C(F)(F)F)ccn2)n(C)n1 [Compound P30] | – | – | –
15 | – | CCSc1cccnc1-c1cn(-c2ccc(C(F)(F)F)nc2)nn1 [Compound P24] | ≥ 70 | ≥ 80 | –
16 | – | CCS(=O)(=O)c1cc(C(F)(F)F)cnc1-c1noc(-c2ccc(C(F)(F)F)cc2)c1C [Compound P8] | ≥ 70 | – | –
17 | – | CCSc1cc(C(F)(F)F)cnc1-c1cn(-c2cncc(C(F)(F)F)c2)nn1 [Compound P21] | ≥ 70 | ≥ 80 | –
18 | – | CCS(=O)(=O)c1cccnc1-c1cn(-c2ccc(C(F)(F)F)nc2)nn1 [Compound P25] | ≥ 70 | ≥ 80 | percent effect (mortality or growth inhibition) at 200 ppm [8]: ≥ 80%; percent effect (mortality or growth inhibition) at 200 ppm [3]: ≥ 80%; mortality at 24 ppm [4]: ≥ 80%
19 | – | CCS(=O)(=O)c1cc(C(F)(F)F)ccc1-c1nnc(-c2ccc(C(F)(F)F)nc2)o1 [Compound P7] | ≥ 70 | – | –
20 | 175 to 177 | CCS(=O)(=O)c1ccc(-n2cncn2)nc1-c1cc(-c2ccc(C(F)(F)F)nc2)n(C)n1 [Compound P35, 3-ethylsulfonyl-2-[1-methyl-5-[6-(trifluoromethyl)-3-pyridyl]pyrazol-3-yl]-6-(1,2,4-triazol-1-yl)pyridine] | – | – | –
21 | 198 to 200 | CCS(=O)(=O)c1ccc(Cl)nc1-c1cc(-c2ccc(C(F)(F)F)nc2)n(C)n1 [Compound P33, 6-chloro-3-ethylsulfonyl-2-[1-methyl-5-[6-(trifluoromethyl)-3-pyridyl]pyrazol-3-yl]pyridine] | – | – | –
22 | – | CCS(=O)(=O)c1cccnc1-c1cn(-c2cccc(C(F)(F)F)c2)nn1 [Compound P15] | ≥ 70 | ≥ 80 | percent effect (mortality or growth inhibition) at 200 ppm [8]: ≥ 80%; percent effect (mortality or growth inhibition) at 200 ppm [3]: ≥ 80%; percent control (mortality, anti-feedant effect or growth inhibition) at 200 ppm [5]: ≥ 80%; percent effect (mortality, anti-feeding or growth inhibition) at 12.5 ppm [6]: ≥ 80%; mortality at 200 ppm [7]: ≥ 80%
23 | – | CCS(=O)(=O)c1cc(-c2ccc(Cl)cc2)cnc1-c1cn(-c2cccc(C(F)(F)F)c2)nn1 [Compound P13, 5-(4-chlorophenyl)-3-ethylsulfonyl-2-[1-[3-(trifluoromethyl)phenyl]triazol-4-yl]pyridine] | ≥ 70 | ≥ 80 | percent effect (mortality or growth inhibition) at 200 ppm [3]: ≥ 80%; percent control (mortality, anti-feedant effect or growth inhibition) at 200 ppm [5]: ≥ 80%
24 | – | CCSc1cccnc1-c1cn(-c2cccc(C(F)(F)F)c2)nn1 [Compound P14] | ≥ 70 | ≥ 80 | percent effect (mortality or growth inhibition) at 200 ppm [8]: ≥ 80%; percent effect (mortality or growth inhibition) at 200 ppm [3]: ≥ 80%; mortality at 200 ppm [7]: ≥ 80%
25 | 238 to 240 | CCS(=O)(=O)c1ccc(-n2cncn2)nc1-c1cc(-c2cc(C(F)(F)F)ccn2)n(C)n1 [Compound P31] | – | – | –
26 | – | CCS(=O)(=O)c1cccnc1-c1cn(-c2ccc(C(F)(F)F)cc2)nn1 [Compound P17, 3-ethylsulfonyl-2-[1-[4-(trifluoromethyl)phenyl]triazol-4-yl]pyridine] | ≥ 70 | ≥ 80 | percent effect (mortality or growth inhibition) at 200 ppm [8]: ≥ 80%; percent effect (mortality or growth inhibition) at 200 ppm [3]: ≥ 80%; percent control (mortality, anti-feedant effect or growth inhibition) at 200 ppm [5]: ≥ 80%
27 | – | CCS(=O)(=O)c1cc(C(F)(F)F)cnc1-c1cn(-c2cncc(C(F)(F)F)c2)nn1 [Compound P23] | ≥ 70 | ≥ 80 | percent control (mortality, anti-feedant effect or growth inhibition) at 200 ppm [5]: ≥ 80%; percent effect (mortality, anti-feeding or growth inhibition) at 12.5 ppm [6]: ≥ 80%
28 | – | CCS(=O)(=O)c1cc(C(F)(F)F)cnc1-c1nnc(-c2cc(C(F)(F)F)ccn2)o1 [Compound P5, 2-[3-ethylsulfonyl-5-(trifluoromethyl)-2-pyridyl]-5-[4-(trifluoromethyl)-2-pyridyl]-1,3,4-oxadiazole] | – | ≥ 80 | –
